Tests used:
Experiment in all cases: relative viability (nuclei count vs DMSO), 5 days (fraction); higher = more cells survive
BMX-IN-1 + OSI-027 = compound: C=CC(=O)Nc1cc(-n2c(=O)ccc3cnc4ccc(-c5ccc(NS(C)(=O)=O)cc5)cc4c32)ccc1C [BMX-IN-1] + COc1cccc2cc(-c3nc([C@H]4CC[C@H](C(=O)O)CC4)n4ncnc(N)c34)[nH]c12 [OSI-027] (partner 0.5 µM)
Procedure, shortened: (§1)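 Relative viability was taken as the ratio of nuclei in treated wells to nuclei in vehicle wells. Lung cancer cell lines in 1536-well plates received compounds by pin tool one day after seeding, either one drug alone or a fixed anchor-drug dose plus five library-drug doses (not always all listed) in √10 steps. Nuclei were counted on 4× images after 5 days of treatment, and values are medians of duplicate plates.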

BMX-IN-1 + Luminespib = compound: C=CC(=O)Nc1cc(-n2c(=O)ccc3cnc4ccc(-c5ccc(NS(C)(=O)=O)cc5)cc4c32)ccc1C [BMX-IN-1] + CCNC(=O)c1noc(-c2cc(C(C)C)c(O)cc2O)c1-c1ccc(CN2CCOCC2)cc1 [Luminespib] (partner 0.01 µM)
Procedure, shortened: as §1

Ibrutinib + Pemetrexed = compound: C=CC(=O)N1CCC[C@@H](n2nc(-c3ccc(Oc4ccccc4)cc3)c3c(N)ncnc32)C1 [Ibrutinib] + Nc1nc2[nH]cc(CCc3ccc(C(=O)N[C@@H](CCC(=O)O)C(=O)O)cc3)c2c(=O)[nH]1 [Pemetrexed] (partner 0.2 µM)
Procedure, shortened: as §1

BMX-IN-1 + AZD7762 = compound: C=CC(=O)Nc1cc(-n2c(=O)ccc3cnc4ccc(-c5ccc(NS(C)(=O)=O)cc5)cc4c32)ccc1C [BMX-IN-1] + NC(=O)Nc1cc(-c2cccc(F)c2)sc1C(=O)N[C@H]1CCCNC1 [AZD7762] (partner 0.2 µM)
Procedure, shortened: as §1

| Cell Line | relative viability (BMX-IN-1 + OSI-027; first compound 0.02 µM) | relative viability (BMX-IN-1 + OSI-027; first compound 0.6325 µM) | relative viability (BMX-IN-1 + OSI-027; first compound 2 µM) | relative viability (BMX-IN-1 + Luminespib; first compound 0.02 µM) | relative viability (BMX-IN-1 + Luminespib; first compound 0.6325 µM) | relative viability (BMX-IN-1 + Luminespib; first compound 2 µM) | relative viability (Ibrutinib + Pemetrexed; first compound 0.005 µM) | relative viability (Ibrutinib + Pemetrexed; first compound 0.01581 µM) | relative viability (Ibrutinib + Pemetrexed; first compound 0.05 µM) | relative viability (Ibrutinib + Pemetrexed; first compound 0.1581 µM) | relative viability (Ibrutinib + Pemetrexed; first compound 0.5 µM) | relative viability (BMX-IN-1 + AZD7762; first compound 0.2 µM) | relative viability (BMX-IN-1 + AZD7762; first compound 0.6325 µM) | relative viability (BMX-IN-1 + AZD7762; first compound 2 µM) | relative viability (BMX-IN-1 + OSI-027; first compound 0.2 µM) | relative viability (BMX-IN-1 + Luminespib; first compound 0.2 µM) | relative viability (BMX-IN-1 + AZD7762; first compound 0.02 µM) |
| --- | --- | --- | --- | --- | --- | --- | --- | --- | --- | --- | --- | --- | --- | --- | --- | --- | --- |
| LOU-NH91 | 0.717 | 0.772 | 0.679 | 0.3 | 0.363 | 0.315 | 0.426 | 0.404 | 0.449 | 0.377 | 0.543 | 0.806 | 0.865 | 0.753 | – | – | – |
| LU99A | 0.321 | 0.329 | 0.298 | 0.216 | 0.227 | 0.258 | 0.217 | 0.211 | 0.205 | 0.206 | 0.412 | 0.416 | 0.415 | 0.288 | 0.289 | 0.181 | 0.393 |
| LXF-289 | 0.878 | 1.1 | 0.838 | 0.816 | 0.825 | 0.671 | 0.936 | 0.927 | 0.915 | 0.81 | 1.01 | 1.18 | 1.22 | 1.27 | 0.766 | 0.809 | 1.25 |
| NCI-H23 | 0.549 | 0.581 | 0.713 | 0.209 | 0.22 | 0.208 | 0.698 | 0.614 | 0.845 | 0.527 | 0.812 | 0.272 | 0.18 | 0.25 | 0.728 | 0.203 | 0.211 |
| NCI-H322M | 0.581 | 0.618 | 0.502 | 0.847 | 0.756 | 0.883 | 0.659 | 0.572 | 0.605 | 0.537 | 0.536 | 0.559 | 0.714 | 0.485 | 0.534 | 0.807 | 0.532 |
| NCI-H358 | 0.942 | 1.04 | 0.75 | 0.444 | 0.405 | 0.327 | 0.165 | 0.18 | – | 0.171 | 0.16 | 0.504 | 0.491 | 0.486 | 0.79 | 0.308 | 0.448 |
| NCI-H441 | 0.708 | 0.649 | 0.68 | 0.384 | 0.56 | 0.279 | 0.287 | 0.269 | 0.293 | 0.263 | 0.301 | 1.03 | 0.997 | 1.39 | 0.753 | 0.428 | 1.12 |
| NCI-H460 | 1.46 | 1.16 | 0.691 | 0.0361 | 0.0299 | 0.0331 | 0.0608 | 0.0607 | 0.0632 | 0.0616 | 0.1 | 0.566 | 0.768 | 0.735 | 1.16 | 0.0362 | 0.725 |
| NCI-H522 | 0.673 | 0.696 | 0.732 | 1.24 | 1.1 | 1.19 | 1.12 | 0.789 | 0.795 | 0.925 | 0.956 | 0.914 | 0.769 | 0.846 | 0.74 | 1.26 | 1.07 |
| NCI-H596 | 0.924 | 0.781 | 0.81 | 0.917 | 1.02 | 1.01 | 0.499 | 0.487 | 0.482 | 0.409 | 0.543 | 1.36 | 1.23 | 1.04 | 0.856 | 1.02 | 1.07 |
| NCI-H647 | 0.722 | 0.736 | 0.571 | 0.242 | 0.179 | 0.379 | 0.197 | 0.183 | 0.205 | 0.194 | 0.421 | 0.583 | 0.71 | 0.62 | 0.642 | 0.294 | 0.492 |
| NCI-H650 | 0.511 | 0.594 | 0.531 | 0.789 | 0.914 | 0.773 | 1.03 | 0.881 | 0.885 | 1.15 | 1.1 | 1.29 | 0.921 | 0.904 | 0.508 | 0.831 | 0.978 |
| NCI-H838 | 0.424 | 0.438 | 0.389 | 0.245 | 0.302 | 0.294 | 0.255 | 0.236 | 0.246 | 0.265 | 0.292 | 1.01 | 0.956 | 1.01 | 0.389 | 0.291 | 1.06 |
| NCI-H1355 | 0.386 | 0.482 | 0.424 | 0.75 | 0.699 | 0.711 | – | 0.944 | 0.987 | 1.06 | 0.951 | 0.85 | 0.838 | 0.755 | 0.393 | 0.724 | 0.872 |
| NCI-H1395 | 0.645 | 0.647 | 0.637 | 0.745 | 0.71 | 0.887 | 0.752 | 0.934 | 0.804 | 0.797 | 1.07 | 0.407 | 0.434 | 0.376 | 0.64 | 0.546 | 0.4 |
| NCI-H1437 | 1.05 | 0.916 | 0.845 | 1.41 | 1.15 | 1.16 | 0.366 | 0.33 | 0.361 | 0.296 | 0.408 | 1.26 | 1.11 | 1.11 | 0.912 | 1.23 | 1.26 |
| NCI-H1651 | 0.9 | 0.782 | 0.582 | 1.12 | 1.05 | 0.773 | 0.436 | 0.661 | 0.572 | 0.479 | 0.558 | 0.503 | 0.527 | 0.422 | 0.426 | 0.911 | 0.557 |
| NCI-H1666 | 0.948 | 0.843 | 0.951 | 1.05 | 1.04 | 1 | 0.716 | 0.984 | 0.793 | 0.859 | 0.871 | 0.886 | 0.901 | 0.871 | 1.01 | 1.08 | 0.804 |

From the supplement of paper PMC10307832
